Laboratory results: patent US20100247461A1, “ANTI-INFLAMMATORY COMPLEXES” (Signum Biosciences, Inc., priority 2009, published 2010)
In brackets after ≈: the same amount, converted by molar mass.

What was measured:
[1] = tested on: MPO (myeloperoxidase), neutrophil marker; assay: TPA mouse ear model of inflammation - MPO inhibition (dermal neutrophil infiltration); format: in vivo; conditions: TPA-treated mouse ear
Description: Briefly, we homogenized 6mm biopsy punches taken from both compound-treated ears as well as TPA-treated and non-treated control groups. We quantitated the levels of MPO by a colorimetric reaction that was measured spectrophotometrically. The percent inhibition of neutrophil infiltration by each complex was determined by comparing the average MPO levels in the presence and absence of these compounds. The calculation for percent inhibition of MPO was determined similar to that as described for calculating the percent edema inhibition, see the Edema Inhibition protocol, supra.

[2] = tested on: TPA-treated mouse ears (edema, ear thickness); assay: TPA mouse ear model of inflammation - edema inhibition; format: in vivo; conditions: topical, 24 hours
[3] = tested on: neutrophils; assay: Inhibition of oxidative burst from neutrophils (fMLP-induced superoxide release); format: cell-based; conditions: Neutrophil, reduction of superoxide formation, fMLP 0.2 μM, 0 to 100 μM compound; read-out: ED50 Respiratory Burst
Description: During inflammation, neutrophils produce and release superoxide ions, otherwise known as oxidative burst response, causing cytotoxicity. […] The superoxide release assay is based on published protocols (Goldstein et al. (1975). J. Clin. Invest. 56(5): 1155-63). Briefly, cells were pre-incubated for 10 min at 37° C. with a mixture of cytochrome c (75 μM final concentration), cytochalasin B (5 μg/ml) with or without superoxide dismutase (SOD) (10 μg/ml) and with or without AFC, AFC-Calcium complex, and AFC-Strontium complex (ranging from 0 to 100 μM). To initiate O2^− release, fMLP (0.2 μM) was added the cells are incubated for 10 min at 37° C. Samples were then placed on ice for 5 min and subsequently centrifuged at 3,000 rpm at 4° C. The supernatant was then analyzed by spectrophotometric measurement at 550 and 556.5 nm. The ED50 values for the reduction of superoxide formation, obtained with AFC, AFC-Calcium complex, and AFC-Strontium complex are depicted in Table 2.

[4] = tested on: TPA-treated mouse ears (erythema, Δa* redness); assay: TPA mouse ear model of inflammation - erythema inhibition; format: in vivo; conditions: topical, 24 hours
Description: The protocol for measuring erythema inhibition by provided complexes was developed in-house by utilizing the CR-400 chroma meter from Konica Minolta (2). This instrument was used to measure the Δa*redness value from 6 mm biopsy punches taken 24 hours post TPA/compound treatment as described in the edema inhibition section above. […] These values were corrected for the Δa* value of non TPA-treated mouse ears of littermate controls.

[5] = tested on: TPA-treated mouse ears (edema, ear thickness); assay: TPA mouse ear model of inflammation - edema inhibition; format: in vivo; conditions: TPA-treated mouse ear
Description: In brief, mice were sedated and their ears were treated with 1.2 μg/20 uL TPA (i.e., tetradecanoylphorbol-13-acetate). After 5 minutes, we dosed these TPA-treated ears with a single 8 μg/20 μL dose, a 2 μg/20 μL dose, or both doses, of provided complexes. After 24 hours, the mice were sacrificed and edema was measured by taking micrometer readings of each ear. […] These values were corrected for the thickness of normal, non TPA-treated mouse ears of littermate controls.

[6] = tested on: mouse skin reepithelialization; assay: Mouse wound healing model - skin reepithelialization; format: in vivo
Source text: The healing of wounded skin is mediated by epidermal reepithelialization that requires keratinocyte migration. Glucocorticoids are known to inhibit wound healing (Ehrlich et al., Proc Soc Exp Biol Med, 1971, 137: 936-938; Leibovich et al., Am J Pathol, 1975, 78, 71-100). […] The methods for studying mouse skin reepithelialization using both partial and full thickness mouse wound healing models have been described elsewhere (Kim et al. Wound Repair Regen, 2001, 9: 386-390). In brief, for partial thickness wounds, a 3 mm-diameter circle of epidermis is removed from the ventral auricle. The resulting wound is cleansed and dressed with an occlusive polyurethane film. The mouse ears are excised on days 3, 5, 8, and 11 post-operation and fixed in 10% buffered formalin. Following day 8 post-operation, sampling of treated mice is performed to determine completion of healing. For full thickness wounds, mice heads are shaved and depilated prior to excising the skin. The cleaned and dressed wounds are harvested and fixed at days 3, 5, 8 and 10 and fixed in 10% buffered formalin.

[7] = tested on: Propionibacterium acnes (strain ATCC 6919); assay: Inhibition of Propionibacterium acnes growth; format: cell-based; conditions: Cutibacterium acnes, ATCC6919, 72 h, 72 hours, anaerobic, absorbance 600 nm, 1×10^6 CFU per mL; read-out: IC50 (inhibition of P. acnes growth)
Description: The assay for the inhibition of growth of Propionibacterium acnes bacteria is described elsewhere (Nakatsuji et al., J Invest Dermatol, 2009, 129: 2480-2488). In brief, the strain ATCC 6919 of P. acnes (American Type Culture Collection, Manassas, Va.) was cultured on Brucella agar (R01254, Remel, Lenexa, Kans.) supplemented with 5% (v/v) defibrinated sheep blood, vitamin K (5 mg/ml, Remel, Lenexa, Kans.), and hemin (50 mg/ml, Remel, Lenexa, Kans.), under an anaerobic condition using Gas-Pak (BD, Sparks, Md.) at 37° C. A single colony was inoculated in Reinforced Clostridium Medium (Oxford, Hampshire, England) and cultured at 37° C. under the anaerobic condition. Each of the inventive complexes—AFC-Sr, AFC-Ag and AFC-Zn as well as AFC were dissolved in 100% (v/v) DMSO. Samples of each inventive complex, AFC and a solution of benzoyl peroxide (“BPO”) were then each incubated with an inoculum of P. acnes at a concentration of 1×10^6 CFU per mL in Reinforced Clostridium Medium in a 96-well microplate (100 μL per well) under anaerobic conditions for 72 hours. Samples of each were tested at final concentrations per well of 0.25 μg/mL, 0.5 μg/mL, 1.0 μg/mL, 1.95 μg/mL, 3.9 μg/mL, 7.8 μg/mL, 15.625 μg/mL, 31.25 μg/mL, 62.5 μg/mL, 125 μg/mL, 250μg/mL, and 500 μg/mL. A control well received only 5% (v /v) of DMSO in place of a sample of an inventive complex. After 72 hours incubation under anaerobic conditions, the P. acnes cultures in the 96-well microplate were mixed well and then absorbance readings at 600 nm were taken to determine bacterial growth. […] Growth curves of P. acnes determined for BPO, AFC, AFC-Sr, AFC-Ag and AFC-Zn are depicted in FIG. 3.

[8] = at the dose tested, AFC oil n=1, data not shown

## CC(=O)N[C@@H](CSC/C=C(\C)CC/C=C(\C)CCC=C(C)C)C(=O)O [AFC, N-acetyl-S-farnesyl-L-cysteine, reference compound]
[1]; [8]
  inhibition of neutrophil infiltration: 55.90%
[1]; several concentrations, inhibitory activity curves
  ED50 in the MPO assay: 651 μg/ear
[1]; topical, 4% concentration, 24 hours
  % MPO Inhibition in the Mouse Ear Inflammation Assay (4% concentration): ++ (“++” indicates a range of 40-80%)
[1]; topical, listed as AFC oil
  ED50 value for inhibiting neutrophil infiltration: 38.8 mM
[2]
  % Edema Inhibition in the Mouse Ear Inflammation Assay (4% concentration): +++ (“+++” indicates >50% inhibition of edema)
[3]
  EC50: 43.3 µM
[4]
  % Erythema Inhibition in the Mouse Ear Inflammation Assay (4% concentration): ++ (“++” indicates a range of 20-40%)
[5]; [8]
  inhibition of edema: 56.35%
[5]; topical, listed as AFC oil
  ED50 for edema inhibition: 54.8 mM
[6]
  effect on mouse skin reepithelialization of wounds: no effects
[7]
  IC50: 12.9 µg/mL (≈ 35.1 µM)
